Data: patent publication US4006204A, “Phosphoric acid diesters” (priority 1975, dated 1977)
pIC50: −log10 of the molar value. Like-named read-outs stand apart in the source and are kept apart here.

Experiments:
prostaglandin synthetase = target: T1, prostaglandin synthetase (Bos taurus, UniProt O62664); experiment: Prostaglandin synthetase inhibition (procedure of Flower et al.); format: biochemical, bovine
T1 construct: enzyme source was bovine; from tissue; host or cells: bovine seminal vesicles
T1 sequence (O62664 25-600): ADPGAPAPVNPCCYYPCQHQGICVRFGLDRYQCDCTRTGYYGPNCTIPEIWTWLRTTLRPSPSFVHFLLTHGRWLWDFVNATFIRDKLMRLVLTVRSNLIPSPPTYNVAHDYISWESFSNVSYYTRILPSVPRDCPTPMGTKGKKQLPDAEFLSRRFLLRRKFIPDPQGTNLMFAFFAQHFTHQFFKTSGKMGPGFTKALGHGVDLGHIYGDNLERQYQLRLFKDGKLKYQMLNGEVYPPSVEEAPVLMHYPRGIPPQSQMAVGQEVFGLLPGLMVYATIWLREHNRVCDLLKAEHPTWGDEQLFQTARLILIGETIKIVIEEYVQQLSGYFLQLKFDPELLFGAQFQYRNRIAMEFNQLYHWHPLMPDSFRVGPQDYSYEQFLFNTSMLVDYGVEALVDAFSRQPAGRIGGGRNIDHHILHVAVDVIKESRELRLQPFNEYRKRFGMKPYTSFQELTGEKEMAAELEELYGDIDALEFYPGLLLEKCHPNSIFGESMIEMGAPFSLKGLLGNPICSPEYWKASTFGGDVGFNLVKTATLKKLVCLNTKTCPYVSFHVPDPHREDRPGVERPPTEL
Method: Compounds were tested for prostaglandin synthetase inhibition via the procedure of Flower et al. (Prostaglandins 4: 325, 1973).

[1] = system: croton oil-induced rat ear edema; experiment: Tonelli anti-inflammatory animal test, croton oil-induced rat ear edema; format: in vivo; conditions: for % protection at 0.3% / % protection at 1.0% / % protection at 3.0%: croton oil rat ear edema; for potency in reducing edema produced by croton oil (conclusion in words): compared with hydrocortisone, summary of Table 4
Method: The following compounds were tested in the standard Tonelli anti-inflammatory animal test model for their effectiveness in preventing croton oil-induced rat ear edema.

[2] = system: mouse diarrhea induced by intraperitoneal prostaglandin E2; experiment: Prevention of mouse diarrhea induced by intraperitoneal prostaglandin E2 injection; format: in vivo; conditions: for ED50: Mus musculus, ip, administered intraperitoneally
Method: Compounds 1 and 2 of Table 2 were tested for their effectiveness in preventing mouse diarrhea induced by intraperitoneal prostaglandin E2 injection. The data are summarized below in Table 5:
^1 dose administered i.p.

prostaglandin receptor = experiment: Blocking of prostaglandin receptor activity, guinea pig ileum vs Prostaglandin E2; format: biochemical; conditions: for prostaglandin receptor blocking activity (conclusion in words): summary of Table 1
Method: The following compounds were tested for their biological activity in blocking prostaglandin receptor activity. This test is useful in that many kinds of inflammation are at least partially prostaglandin mediated. Table 1 below tabulates the results.
^1 PGE2 : Guinea pig ileum IC50 vs Prostaglandin E2

[3] = enzyme source bovine seminal vesicles

Row | Structure (SMILES) | pIC50 (prostaglandin synthetase) | % protection at 0.3% [1] | % protection at 1.0% [1] | % protection at 3.0% [1] | potency in reducing edema produced by croton oil (conclusion in words) [1] | % prevention of diarrhea ([2]; 30 Mg/kg i.p.) | % prevention of diarrhea ([2]; 60 Mg/kg i.p.) | % prevention of diarrhea ([2]; 100 Mg/kg i.p.) | ED50 [2] | prostaglandin receptor blocking activity (conclusion in words) (prostaglandin receptor) | prostaglandin synthetase inhibition at 50 μM (prostaglandin synthetase; [3]) | prostaglandin synthetase blocking (conclusion in words) (prostaglandin synthetase; compared with indomethacin, summary of Table 3) | pIC50 (prostaglandin synthetase; enzyme source bovine seminal vesicles, read-out: ID50 vs Prostaglandin E2 (prostaglandin synthetase inhibition)) | Guinea pig ileum inhibition vs Prostaglandin E2 (prostaglandin receptor; Guinea pig ileum, vs PGE2, at 30 × 10^^-6)
1 | CC(COP(=O)(O)Oc1ccccc1)c1ccc(C2CCCCC2)c(Cl)c1 (stereo not drawn) [Compound 2] | 4.30 | 15.9% | 51.3% | 65.4% | approximately as potent as hydrocortisone | 40% | 50% | 70% | ~60 mg/kg | prostaglandin receptor blockers |  |  |  | 
2 | CC(O)c1ccc(C2CCCCC2)c(Cl)c1 (stereo not drawn) [Compound 5, reference compound] |  |  |  |  |  |  |  |  |  |  | insignificant |  |  | 
3 | CC(CO)c1ccc(C2CCCCC2)c(Cl)c1 (stereo not drawn) [Compound 4, reference compound] |  |  |  |  |  |  |  |  |  | weak or have no prostaglandin-blocking activity | no inhibition |  |  | 
4 | C[C@]12CCC(=O)C=C1CC[C@@H]1[C@@H]2[C@@H](O)C[C@@]2(C)[C@H]1CC[C@]2(O)C(=O)CO [hydrocortisone, reference compound] |  | 13.8% | 45.9% | 68.7% |  |  |  |  |  |  |  |  |  | 
5 | CC(OP(=O)(O)Oc1ccccc1)c1ccc(C2CCCCC2)c(Cl)c1 (stereo not drawn) [Compound 1] | 4.74 | 0.0% | 23.4% | 53.8% | approximately as potent as hydrocortisone | 0% | 60% | 70% | ~60 mg/kg | prostaglandin receptor blockers |  | effective blocker of prostaglandin synthetase, comparable in effect to indomethacin |  | 
6 | CC(C(=O)O)c1ccc(C2CCCCC2)c(Cl)c1 (stereo not drawn) [Compound 3] |  |  |  |  |  |  |  |  |  | weak or have no prostaglandin-blocking activity |  |  | 5.40 to 5.70 | No inhibition
